Results published in publication PMC12002301, “Discovery and functional characterization of a bombesin-type neuropeptide signaling system in an invertebrate” (Proceedings of the National Academy of Sciences of the …, 2025).

Columns and labels:
[1] = tested on: CHO-K1 cells transfected with empty pcDNA3.1(+) vector; assay: Luminescence control assay, CHO-K1 cells cotransfected with empty pcDNA3.1(+) vector and Gqs5; assay type: cell-based, Chinese hamster; conditions: empty pcDNA3.1(+) vector and Gqs5, words
[2] = tested on: ArBNR2(G272); assay: Luminescence (GFP-aequorin Ca2+) assay, CHO-K1 cells coexpressing ArBNR2(G272) and Gqs5; assay type: cell-based, Asterias rubens; conditions: words, up to 10^-5 M
Source text: Having identified ArBN and ArBN5-14 as peptides that are naturally derived from ArBNP in A. rubens, we then sought to identify receptors that these peptides may act as ligands for. BLAST analysis of transcriptome/genome data identified eleven candidate BN-type receptors, which we refer to as ArBNR1-11. Homologs of this family of proteins were also identified in other echinoderms. […] Accordingly, a modified form of ArBNR2 in which the glutamate residue at position 272 is substituted with glycine, ArBNR2(G272), also has seven predicted transmembrane domains (SI Appendix, SI Methods). […]
domains and other structural features (9). The topology of […] of the potential A. rubens BN-type receptors as predicted by Protter V1.0 comprised seven transmembrane domains, as expected for a GPCR. However, the topology of the proteins encoded by contig 1110162 and contig 1110464 comprised only six and four transmembrane domains, respectively. Analysis of the transcript […]
To determine the complete open reading frame of ArBNR2, contig 1110162 was used as a query for blastx analysis of A. rubens genome sequence data on NCBI and accession no. […] The protein (XP_033631283.1 referred to henceforth as ArBNR2) was analysed using […]
Having discovered that MgBNR2 has the expected topology for a GPCR when analysed using both Protter and DeepTMHMM, we then compared its sequence to ArBNR2. […]

Substance | peptide-induced luminescence [1] | peptide-induced luminescence [2]
NYNRVFGPTY-NH2 [ArBN5-14, C-terminally amidated 10-residue peptide corresponding to the C-terminal region of ArBN] | did not trigger luminescence | did not trigger luminescence
EPMPSSLALYIANLSP-NH2 [ArBNP65-81, C-terminally amidated 16-residue peptide predicted to be derived from residues 65 to 81 of ArBNP] | did not trigger luminescence | did not trigger luminescence
